“Also recorded” adds a separate entry of the source.
Legend:
Assay type in all cases: in vivo
[1] = system: sweet sensitive panelists; test: Sweet enhancement in a cola beverage application (7% sucrose cola, R-index ranking)
Method: A 1% ethanol solution of N-cycloheptyl-2-methylindoline-1-carboxamide was added into a 7% sucrose containing cola solution. […] To determine its isointensity a panel of trained experts was then asked to evaluate the taste (in particularly the sweet taste) of this sample solution in comparison to sample cola solutions containing 7%, 8%, 9% and 10% sucrose but no N-cycloheptyl-2-methylindoline-1-carboxamide. Panel testing was carried out in the following way: Twenty milliliters of each of the sample solutions was presented blind and in random order to 20 sweet sensitive panelists. In two replications (over 1 session), panelists were asked to rank the solutions from least sweet to most sweet. The data was then subjected to an R-index analysis as described in example 15.

[2] = system: sweet sensitive panelists; test: Isointensity measurement in water against sucrose solutions (R-index ranking)
Method: A 1% solution of N-cycloheptyl-2-methylindoline-1-carboxamide was prepared in ethanol. This 1% solution was then further diluted, using water, to create a 5 ppm sample solution of N-cycloheptyl-2-methylindoline-1-carboxamide. To determine the isointensity of this solution a panel of trained experts was then asked to evaluate the taste (in particularly the sweet taste) of this sample solution in comparison to 0.5%, 1% and 1.5% sample sucrose solutions. Panel testing was carried out in the following way: Twenty milliliters of each of the samples was presented blind and in counter balanced order following a William's Latin square design, to 20 sweet sensitive panelists. In two replications (over 1 session), panelists were asked to taste and rank the solutions from least sweet to most sweet. […] A 1% solution of (R)-N-cyclooctyl-2-methylindoline-1-carboxamide was prepared in ethanol. This 1% solution was then further diluted, using water, to create a 2 ppm sample solution of (R)-N-cyclooctyl-2-methylindoline-1-carboxamide. To determine the isointensity of this solution a panel of trained experts was then asked to evaluate the taste (in particularly the sweet taste) of this sample solution in comparison to 0.5%, 1% and 1.5% sample sucrose solutions. Panel testing was carried out in the following way: Twenty milliliters of each of the samples was presented blind and in counter balanced order following a William's Latin square design, to 20 sweet sensitive panelists. In two replications (over 1 session), panelists were asked to taste and rank the solutions from least sweet to most sweet.

[3] = system: panel of trained experts; test: Taste evaluation of diluted sample solutions by a panel of trained experts; settings: for taste of sample solutions (inherent sweetness): 1% ethanol solutions diluted with water to differing ppm concentrations; for effectiveness at creating modifying, or enhancing the sweet flavour of compositions and consumable products: general statement of the applicant
Method: 1% solutions of compounds of formula (I) were prepared in ethanol. These 1% solutions were then further diluted, using water, to create sample solutions of differing ppm concentrations. A panel of trained experts was then asked to evaluate the taste of each sample solution and to comment on any inherent sweetness, other perceived taste, or flavor attributes. After tasting each sample the experts rinsed their mouths with water and a break was observed until the stimulus disappeared. […]

[4] = system: sweet sensitive panelists; test: Sweet enhancement in 7% sucrose (aqueous solution, R-index ranking)
Method: A 1% ethanol solution of (R)-N-cyclooctyl-2-methylindoline-1-carboxamide was added into an aqueous 7% sucrose solution. […] To determine its isointensity a panel of trained experts was then asked to evaluate the taste (in particularly the sweet taste) of this sample solution in comparison to aqueous sample solutions containing 7%, 8%, 9% and 10% sucrose, but without added (R)-N-cyclooctyl-2-methylindoline-1-carboxamide. Panel testing was carried out in the following way: Twenty milliliters of each of the sample solutions was presented blind and in random order to 20 sweet sensitive panelists. In two replications (over 1 session), panelists were asked to rank the solutions from least sweet to most sweet. The data was then subjected to an R-index analysis as described in example 5.

[5] = 7% sugar cola + 5 ppm vs. 7% sugar
[6] = 7% sugar cola + 5 ppm vs. 8% sugar
[7] = 7% sugar cola + 5 ppm vs. 9% sugar
[8] = 7% sugar cola + 5 ppm vs. 10% sugar
[9] = 5 ppm in water vs. 0.5% sucrose solution
[10] = 5 ppm in water vs. 1.0% sucrose solution
[11] = 5 ppm in water vs. 1.5% sucrose solution
[12] = 2 ppm in water vs. 0.5% sucrose solution
[13] = 2 ppm in water vs. 1.0% sucrose solution
[14] = 2 ppm in water vs. 1.5% sucrose solution

CC1Cc2ccccc2N1C(=O)NC1CCCCCC1 (centres unmarked) [Example 2, N-cycloheptyl-2-methylindoline-1-carboxamide]
sweetness enhancer behaviour ([1]; 5 ppm in 7% sucrose cola, iso sweet with 8% instead of expected 7.5% sucrose): behaving as a sweetness enhancer | Experimental Compound Sweetness [1, 5]: significantly more sweet | R-index [1, 5]: 37.72 | Significantly different (p < 0.05) [1, 5]: Yes | Experimental Compound Sweetness [1, 6]: Iso sweet | R-index [1, 6]: 40.03 | Significantly different (p < 0.05) [1, 6]: No | Experimental Compound Sweetness [1, 7]: significantly less sweet | R-index [1, 7]: 68.97 | Significantly different (p < 0.05) [1, 7]: Yes | Experimental Compound Sweetness [1, 8]: significantly less sweet | R-index [1, 8]: 90.78 | Significantly different (p < 0.05) [1, 8]: Yes | Experimental Compound Sweetness [2, 9]: Iso-sweet; also recorded: iso sweet | R-index [2, 9]: 39.38 | Significantly different (p < 0.05) [2, 9]: No | Experimental Compound Sweetness [2, 10]: significantly less sweet | R-index [2, 10]: 78.63 | Significantly different (p < 0.05) [2, 10]: Yes | Experimental Compound Sweetness [2, 11]: significantly less sweet | R-index [2, 11]: 92.00 | Significantly different (p < 0.05) [2, 11]: Yes

C[C@@H]1Cc2ccccc2N1C(=O)NC1CCCCCC1 [Example 18, (R)-N-cycloheptyl-2-methylindoline-1-carboxamide]
taste of sample solutions (inherent sweetness) [3]: sweet | effectiveness at creating modifying, or enhancing the sweet flavour of compositions and consumable products [3]: particularly effective

C[C@@H]1Cc2ccccc2N1C(=O)NC1CCCCCCC1 [Example 20, (R)-N-cyclooctyl-2-methylindoline-1-carboxamide]
taste of sample solutions (inherent sweetness) [3]: sweet | effectiveness at creating modifying, or enhancing the sweet flavour of compositions and consumable products [3]: particularly effective | sweetness enhancer behaviour ([4]; 2 ppm in 7% sucrose, iso sweet with 8% sucrose, expected less sweet than 8%): behaving as a sweetness enhancer | Experimental Compound Sweetness ([4]; 7% sugar + 2 ppm vs. 7% sugar): significantly more sweet | R-index ([4]; 7% sugar + 2 ppm vs. 7% sugar): 35.53 | Significantly different (p < 0.05) ([4]; 7% sugar + 2 ppm vs. 7% sugar): Yes | Experimental Compound Sweetness ([4]; 7% sugar + 2 ppm vs. 8% sugar): Iso sweet | R-index ([4]; 7% sugar + 2 ppm vs. 8% sugar): 61.44 | Significantly different (p < 0.05) ([4]; 7% sugar + 2 ppm vs. 8% sugar): No | Experimental Compound Sweetness ([4]; 7% sugar + 2 ppm vs. 9% sugar): significantly less sweet | R-index ([4]; 7% sugar + 2 ppm vs. 9% sugar): 77.09 | Significantly different (p < 0.05) ([4]; 7% sugar + 2 ppm vs. 9% sugar): Yes | Experimental Compound Sweetness ([4]; 7% sugar + 2 ppm vs. 10% sugar): significantly less sweet | R-index ([4]; 7% sugar + 2 ppm vs. 10% sugar): 88.44 | Significantly different (p < 0.05) ([4]; 7% sugar + 2 ppm vs. 10% sugar): Yes | R-index [2, 12]: 27.00 | Significantly different (p < 0.05) [2, 12]: Yes | Experimental Compound Sweetness [2, 13]: significantly less sweet | R-index [2, 13]: 72.31 | Significantly different (p < 0.05) [2, 13]: Yes | Experimental Compound Sweetness [2, 14]: significantly less sweet | R-index [2, 14]: 99.13 | Significantly different (p < 0.05) [2, 14]: Yes

Reference: US20120263848A1, “Organic Compounds” (priority 2009, published 2012)
